Assays:
CCRF-CEM = assay: NCI60 one-dose screen (10 μM), Leukemia; format: cell-based; conditions: Homo sapiens, 10 μM, Leukemia, read-out: Growth percent rate
HL-60(TB) = assay: NCI60 one-dose screen (10 μM), Leukemia; format: cell-based; conditions: Homo sapiens; 10 μM; HL-60(TB), Leukemia; read-out: Growth percent rate
K-562 = assay: NCI60 one-dose screen (10 μM), Leukemia; format: cell-based; conditions: Homo sapiens, K562; 10 μM; K-562, Leukemia; read-out: Growth percent rate
MOLT-4 = assay: NCI60 one-dose screen (10 μM), Leukemia; format: cell-based, human; conditions: Homo sapiens; 10 μM; MOLT-4, Leukemia; read-out: Growth percent rate
RPMI-8226 = assay: NCI60 one-dose screen (10 μM), Leukemia; format: cell-based; conditions: Homo sapiens; 10 μM; RPMI-8226, Leukemia; read-out: Growth percent rate
A549/ATCC = assay: NCI60 one-dose screen (10 μM), Non-small Cell Lung Cancer; format: cell-based; conditions: Homo sapiens; 10 μM; A549/ATCC, Non-small Cell Lung Cancer; read-out: Growth percent rate
EKVX = assay: as above; format: cell-based; conditions: Homo sapiens, 10 μM, Non-small Cell Lung Cancer, read-out: Growth percent rate
HOP-62 = assay: as above; format: cell-based; conditions: Homo sapiens; 10 μM; HOP-62, Non-small Cell Lung Cancer; read-out: Growth percent rate
NCI-H23 = assay: as above; format: cell-based; conditions: Homo sapiens; 10 μM; NCI-H23, Non-small Cell Lung Cancer; read-out: Growth percent rate
NCI-H322M = assay: as above; format: cell-based; conditions: Homo sapiens, 10 μM, Non-small Cell Lung Cancer, read-out: Growth percent rate
NCI-H460 = assay: as above; format: cell-based; conditions: Homo sapiens; 10 μM; NCI-H460, Non-small Cell Lung Cancer; read-out: Growth percent rate
NCI-H522 = assay: as above; format: cell-based; conditions: Homo sapiens; 10 μM; NCI-H522, Non-small Cell Lung Cancer; read-out: Growth percent rate
COLO 205 = assay: NCI60 one-dose screen (10 μM), Colon Cancer; format: cell-based, human; conditions: Homo sapiens; 10 μM; COLO 205, Colon Cancer; read-out: Growth percent rate
HCC-2998 = assay: NCI60 one-dose screen (10 μM), Colon Cancer; format: cell-based; conditions: Homo sapiens; 10 μM; HCC-2998, Colon Cancer; read-out: Growth percent rate
HCT-116 = assay: NCI60 one-dose screen (10 μM), Colon Cancer; format: cell-based; conditions: Homo sapiens; 10 μM; HCT-116, Colon Cancer; read-out: Growth percent rate
HCT-15 = assay: NCI60 one-dose screen (10 μM), Colon Cancer; format: cell-based; conditions: Homo sapiens; 10 μM; HCT-15, Colon Cancer; read-out: Growth percent rate
HT29 = assay: NCI60 one-dose screen (10 μM), Colon Cancer; format: cell-based; conditions: Homo sapiens, HT-29; 10 μM; HT29, Colon Cancer; read-out: Growth percent rate
KM12 = assay: NCI60 one-dose screen (10 μM), Colon Cancer; format: cell-based, human; conditions: Homo sapiens; 10 μM; KM12, Colon Cancer; read-out: Growth percent rate
SW-620 = assay: NCI60 one-dose screen (10 μM), Colon Cancer; format: cell-based; conditions: Homo sapiens; 10 μM; SW-620, Colon Cancer; read-out: Growth percent rate
SF-295 = assay: NCI60 one-dose screen (10 μM), CNS Cancer; format: cell-based; conditions: Homo sapiens; 10 μM; SF-295, CNS Cancer; read-out: Growth percent rate
SF-539 = assay: NCI60 one-dose screen (10 μM), CNS Cancer; format: cell-based, human; conditions: Homo sapiens; 10 μM; SF-539, CNS Cancer; read-out: Growth percent rate
SNB-19 = assay: NCI60 one-dose screen (10 μM), CNS Cancer; format: cell-based; conditions: Homo sapiens; 10 μM; SNB-19, CNS Cancer; read-out: Growth percent rate
SNB-75 = assay: NCI60 one-dose screen (10 μM), CNS Cancer; format: cell-based, human; conditions: Homo sapiens; 10 μM; SNB-75, CNS Cancer; read-out: Growth percent rate
U251 = assay: NCI60 one-dose screen (10 μM), CNS Cancer; format: cell-based; conditions: Homo sapiens, U-251; 10 μM; U251, CNS Cancer; read-out: Growth percent rate
MALME-3M = assay: NCI60 one-dose screen (10 μM), Melanoma; format: cell-based; conditions: Homo sapiens; 10 μM; MALME-3M, Melanoma; read-out: Growth percent rate
M14 = assay: NCI60 one-dose screen (10 μM), Melanoma; format: cell-based; conditions: Homo sapiens; 10 μM; M14, Melanoma; read-out: Growth percent rate
MDA-MB-435 = assay: NCI60 one-dose screen (10 μM), Melanoma; format: cell-based; conditions: Homo sapiens; 10 μM; MDA-MB-435, Melanoma; read-out: Growth percent rate
SK-MEL-2 = assay: NCI60 one-dose screen (10 μM), Melanoma; format: cell-based; conditions: Homo sapiens; 10 μM; SK-MEL-2, Melanoma; read-out: Growth percent rate
SK-MEL-28 = assay: NCI60 one-dose screen (10 μM), Melanoma; format: cell-based; conditions: Homo sapiens; 10 μM; SK-MEL-28, Melanoma; read-out: Growth percent rate
SK-MEL-5 = assay: NCI60 one-dose screen (10 μM), Melanoma; format: cell-based, human; conditions: Homo sapiens; 10 μM; SK-MEL-5, Melanoma; read-out: Growth percent rate
UACC-257 = assay: NCI60 one-dose screen (10 μM), Melanoma; format: cell-based; conditions: Homo sapiens; 10 μM; UACC-257, Melanoma; read-out: Growth percent rate
IGROV1 = assay: NCI60 one-dose screen (10 μM), Ovarian Cancer; format: cell-based; conditions: Homo sapiens, IGROV-1; 10 μM; IGROV1, Ovarian Cancer; read-out: Growth percent rate
OVCAR-3 = assay: NCI60 one-dose screen (10 μM), Ovarian Cancer; format: cell-based; conditions: Homo sapiens; 10 μM; OVCAR-3, Ovarian Cancer; read-out: Growth percent rate
OVCAR-8 = assay: NCI60 one-dose screen (10 μM), Ovarian Cancer; format: cell-based; conditions: Homo sapiens; 10 μM; OVCAR-8, Ovarian Cancer; read-out: Growth percent rate
786–0 = assay: NCI60 one-dose screen (10 μM), Renal Cancer; format: cell-based; conditions: Homo sapiens; 10 μM; 786-0, Renal Cancer; read-out: Growth percent rate
A498 = assay: NCI60 one-dose screen (10 μM), Renal Cancer; format: cell-based; conditions: Homo sapiens; 10 μM; A498, Renal Cancer; read-out: Growth percent rate
ACHN = assay: NCI60 one-dose screen (10 μM), Renal Cancer; format: cell-based; conditions: Homo sapiens, 10 μM, Renal Cancer, read-out: Growth percent rate
CAKI-1 = assay: NCI60 one-dose screen (10 μM), Renal Cancer; format: cell-based; conditions: Homo sapiens; 10 μM; CAKI-1, Renal Cancer; read-out: Growth percent rate
SN12C = assay: NCI60 one-dose screen (10 μM), Renal Cancer; format: cell-based; conditions: Homo sapiens, 10 μM, Renal Cancer, read-out: Growth percent rate
TK-10 = assay: NCI60 one-dose screen (10 μM), Renal Cancer; format: cell-based; conditions: Homo sapiens; 10 μM; TK-10, Renal Cancer; read-out: Growth percent rate
MCF7 = assay: NCI60 one-dose screen (10 μM), Breast Cancer; format: cell-based; conditions: Homo sapiens; 10 μM; MCF7, Breast Cancer; read-out: Growth percent rate
HS 578T = assay: NCI60 one-dose screen (10 μM), Breast Cancer; format: cell-based; conditions: Homo sapiens; 10 μM; HS 578T, Breast Cancer; read-out: Growth percent rate

Structure (SMILES): CC[C@]12C=CCN3CC[C@@]4(c5ccc(OC)cc5N(C)[C@H]4[C@@](O)(C(=O)OC)[C@@H]1OC(=O)CCC(=O)N1CCN(Cc4ccc(F)cc4)CC1)[C@@H]32 [Compound 30]
- activity at 10 µM (CCRF-CEM): 61.4%
- activity at 10 µM (HL-60(TB)): 82.2%
- activity at 10 µM (K-562): 65.2%
- activity at 10 µM (MOLT-4): 59.4%
- activity at 10 µM (RPMI-8226): 46.3%
- activity at 10 µM (A549/ATCC): 55.4%
- activity at 10 µM (EKVX): 60.2%
- activity at 10 µM (HOP-62): 88.4%
- activity at 10 µM (NCI-H23): 83.4%
- activity at 10 µM (NCI-H322M): 97.2%
- activity at 10 µM (NCI-H460): 83.4%
- activity at 10 µM (NCI-H522): 59.7%
- activity at 10 µM (COLO 205): 66.7%
- activity at 10 µM (HCC-2998): 85.3%
- activity at 10 µM (HCT-116): 67.8%
- activity at 10 µM (HCT-15): 79.5%
- activity at 10 µM (HT29): 60.5%
- activity at 10 µM (KM12): 83.6%
- activity at 10 µM (SW-620): 102%
- activity at 10 µM (SF-295): 67.9%
- activity at 10 µM (SF-539): 78.7%
- activity at 10 µM (SNB-19): 69.5%
- activity at 10 µM (SNB-75): 64.5%
- activity at 10 µM (U251): 71.6%
- activity at 10 µM (MALME-3M): 93.3%
- activity at 10 µM (M14): 61%
- activity at 10 µM (MDA-MB-435): 85.7%
- activity at 10 µM (SK-MEL-2): 90.2%
- activity at 10 µM (SK-MEL-28): 104%
- activity at 10 µM (SK-MEL-5): 62.6%
- activity at 10 µM (UACC-257): 86%
- activity at 10 µM (IGROV1): 68.4%
- activity at 10 µM (OVCAR-3): 63.7%
- activity at 10 µM (OVCAR-8): 73.7%
- activity at 10 µM (786–0): 84.2%
- activity at 10 µM (A498): 110%
- activity at 10 µM (ACHN): 71.3%
- activity at 10 µM (CAKI-1): 28.1%
- activity at 10 µM (SN12C): 71.2%
- activity at 10 µM (TK-10): 60.6%
- activity at 10 µM (MCF7): 62.2%
- activity at 10 µM (HS 578T): 78.5%

Structure (SMILES): CCC12C=CCN3CCC4(c5cc(NC(=O)CN6CCN(C(c7ccc(F)cc7)c7ccc(F)cc7)CC6)c(OC)cc5N(C)C4C(O)(C(=O)OC)C1OC(C)=O)C32 (stereo not drawn) [Compound 20]
- activity at 10 µM (CCRF-CEM): -18.9%
- activity at 10 µM (HL-60(TB)): -10.8%
- activity at 10 µM (K-562): 17%
- activity at 10 µM (MOLT-4): 1.17%
- activity at 10 µM (RPMI-8226): -2.68%
- activity at 10 µM (A549/ATCC): 31%
- activity at 10 µM (EKVX): 16.2%
- activity at 10 µM (HOP-62): 60.3%
- activity at 10 µM (NCI-H23): 38%
- activity at 10 µM (NCI-H322M): 42.8%
- activity at 10 µM (NCI-H460): 17.3%
- activity at 10 µM (NCI-H522): 11%
- activity at 10 µM (COLO 205): -60.5%
- activity at 10 µM (HCC-2998): 3.93%
- activity at 10 µM (HCT-116): 27.9%
- activity at 10 µM (HCT-15): 18.3%
- activity at 10 µM (HT29): -40.8%
- activity at 10 µM (KM12): 20.2%
- activity at 10 µM (SW-620): 34.2%
- activity at 10 µM (SF-295): 13.8%
- activity at 10 µM (SF-539): -61.1%
- activity at 10 µM (SNB-19): 21.5%
- activity at 10 µM (SNB-75): -60.5%
- activity at 10 µM (U251): 31.7%
- activity at 10 µM (MALME-3M): 0%
- activity at 10 µM (M14): 49.7%
- activity at 10 µM (MDA-MB-435): 22.2%
- activity at 10 µM (SK-MEL-2): -34.7%
- activity at 10 µM (SK-MEL-28): 51.2%
- activity at 10 µM (SK-MEL-5): -76.2%
- activity at 10 µM (UACC-257): 37.9%
- activity at 10 µM (IGROV1): 44.9%
- activity at 10 µM (OVCAR-3): 36.5%
- activity at 10 µM (OVCAR-8): 45.6%
- activity at 10 µM (786–0): 34%
- activity at 10 µM (A498): 35.6%
- activity at 10 µM (ACHN): 11.4%
- activity at 10 µM (CAKI-1): 27.7%
- activity at 10 µM (SN12C): 26.9%
- activity at 10 µM (TK-10): 37.6%
- activity at 10 µM (MCF7): 5.47%
- activity at 10 µM (HS 578T): 15.5%
